Values of other authors as cited in US20030100472A1, “Detergent tablet compositions” (Unilever Home & Personal Care USA, Division of Conopco, Inc., priority 2001, published 2003).
Like-named read-outs stand apart in the source and are kept apart here.

Row | Water Solubility (g/100 g) (grams of solid required to form a saturated solution in 100 grams of water at 20° C., highly water-soluble materials) | Structure (SMILES) | Water Solubility (g/100 g) (at 20° C., other materials)
1 |  | O=P(O)(O)OP(=O)(O)OP(=O)(O)O [Sodium tripolyphosphate anhydrous] | 15
2 |  | O=BO[O-].[Na+] [Sodium perborate anhydrous] | 3.7
3 | >100 | NC(N)=O [Urea] | 
